In article PMC6632053, “Incorporation of Putative Helix-Breaking Amino Acids in the Design of Novel Stapled Peptides: Exploring Biophysical and Cellular Permeability Properties” (Molecules, 2019):
Where two headings read alike, the source gives them in different places. Bridge positions count the residues as written; N and C are the ends. Square brackets hold non-standard residues; d marks the D form. Peptide text beside a SMILES is read from it. Lys(N3) = [N-]=[N+]=NCCCC[C@H](N)C(=O)O; R8 = C=CCCCCCC[C@@](C)(N)C(=O)O; Cba = N[C@@H](CC1CCC1)C(=O)O; S5 = C=CCCC[C@](C)(N)C(=O)O; Aib = CC(C)(N)C(=O)O; βAla = NCCC(=O)O

Legend:
[1] = system: p53 responsive β-lactamase reporter in HCT116 cells; experiment: p53 beta-lactamase reporter gene cellular functional assay; type: cell-based; conditions: p53 reporter assay, HCT116, read-out: Cellular (µM), cellular activity (EC50)
Protocol: HCT116 cells were stably transfected with a p53 responsive β-lactamase reporter and were seeded into a 384-well plate at a density of 8000 cells per well. Cells were maintained in McCoy’s 5A Medium with 10% fetal bovine serum (FBS), Blasticidin, and Penicillin/Streptomycin. The cells were incubated overnight, followed by removal of cell growth media and replacement with Opti-MEM either containing 0% FBS or 10% FBS. […] The final working concentration of DMSO was 0.5%. β-lactamase activity was detected using the ToxBLAzer Dual Screen (Invitrogen), as per the manufacturer’s instructions. Measurements were made using the Envision multiplate reader (Perkin–Elmer).

[2] = Circular dichroism (CD) α-helicity; type: physicochemical; conditions: for Helicity (%): Table 2, CD of free peptide, 25 °C, 1 mM Hepes pH 7.4, 5% methanol
Protocol: A total of 5 µL of the 10 mM stock peptide was mixed with 45 µL of 100% methanol, and dried for 2 h in the SpeedVac concentrator (Thermo Scientific). The dried peptide was reconstituted in a buffer (1 mM Hepes pH 7.4 and 5% methanol) to a concentration of 1 mM. The peptide sample was placed in a quartz cuvette with a path length of 0.2 cm. The peptide concentration was determined by the absorbance of the peptide at […]. The CD spectrum was recorded from 300 to 190 nm using the Chirascan-plus qCD machine (Applied Photophysics, Surrey, UK), at 25 °C. All experiments were done in duplicates. The CD spectrum was converted to mean residue ellipticity, before deconvolution and estimation of the secondary structure components of the peptide using the CDNN software (distributed by Applied Photophysics).

human Mdm2 1–125 = biological target: T1, human Mdm2 1–125 (Homo sapiens, UniProt Q00987); experiment: Mdm2 binding assay (competitive fluorescence anisotropy/polarization); conditions: competitive fluorescence polarization, read-out: Mdm2 (nM), Mdm2 binding (Kd)
T1 construct: GST (N); His6 (internal); TEV cleavage site ENLYFQG (internal); made in house; host or cells: Escherichia coli BL21 (DE3) Rosetta T1R
Protocol: The TEV (tobacco etch virus) cleavage site was changed from ENLYFQS to ENLYFQG to give a fusion protein with the following sequence:
Titrations were carried out with the concentration of Mdm2 held constant at 250 nM and the labeled peptide at 50 nM. The competing molecules were then titrated against the complex of the FAM-labeled peptide and protein. Apparent Kd values were determined by fitting the experimental data to the equations shown below:(2) r=r0+(rb−r0)×2(d^2−3e)cos(θ/3)−9/3Kd1+2(d^2−3e)cos(θ/3)−dd=Kd1+Kd2+[L]st+[L]t−[P]te=([L]t−[P]t)Kd1+([L]st−[P]t)Kd2+Kd1Kd2f=−Kd1Kd2[P]tθ=arcos[−2d^3+9de−27f/2(d^2−3e)^3] where [L]st and [L]t denote labeled ligand and total unlabeled ligand input concentrations, respectively. Kd2 is the dissociation constant of the interaction between the unlabeled ligand and the protein. In all competition experiments, it was assumed that [P]t > [L]st, otherwise considerable amounts of free labeled ligand would always be present and would interfere with measurements. Kd1 is the apparent Kd for the labeled peptide used and was experimentally determined as described in the previous paragraph. The FAM-labeled peptide was dissolved in dimethyl sulfoxide (DMSO) at 1 mM and diluted into the experimental buffer. Readings were carried out with an Envision Multilabel Reader (PerkinElmer). Experiments were carried out in PBS (2.7 mM KCl, 137mM NaCl, 10 mM Na2HPO4, and 2 mM KH2PO4 (pH 7.4)) and 0.1% Tween 20 buffer. All titrations were carried out in triplicate. Curve-fitting was carried out using Prism 4.0 (GraphPad). […] Negative control titrations of the ligands under investigation were also carried out with the fluorescently labeled peptide (in the absence of Mdm2) to ensure no interactions were occurring between the ligands and the FAM-labeled peptide.

T1 sequence (Q00987 with tags, fused parts or gaps): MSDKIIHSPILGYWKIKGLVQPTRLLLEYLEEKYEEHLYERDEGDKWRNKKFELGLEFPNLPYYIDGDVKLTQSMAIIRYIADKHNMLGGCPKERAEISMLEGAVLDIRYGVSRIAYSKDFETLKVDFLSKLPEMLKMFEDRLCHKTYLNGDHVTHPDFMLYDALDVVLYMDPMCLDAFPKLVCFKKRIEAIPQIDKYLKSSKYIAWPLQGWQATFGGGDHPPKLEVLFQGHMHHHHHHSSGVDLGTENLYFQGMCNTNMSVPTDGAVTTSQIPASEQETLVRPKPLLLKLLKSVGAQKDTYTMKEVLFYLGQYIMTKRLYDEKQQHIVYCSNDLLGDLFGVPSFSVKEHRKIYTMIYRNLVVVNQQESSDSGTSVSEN

Row | Compound | EC50 ([1]; Table 2) [µM] | Helicity (%) [2] [%] | Kd (human Mdm2 1–125; Table 2) [nM] | α-helicity by CD [2] [%] | EC50 ([1]; Table 1) [µM] | Kd (human Mdm2 1–125; Table 1) [nM]
1 | CC(=O)N[C@@H](CCCCN=[N+]=[N-])C(=O)NCCC(=O)N[C@@H](CC(C)C)C(=O)N[C@H](C(=O)N[C@@H](Cc1ccccc1)C(=O)N[C@]1(C)CCCCCCC=CCCC[C@@](C)(C(=O)N[C@@H](CO)C(=O)N[C@@H](C)C(=O)N[C@@H](C)C(N)=O)NC(=O)[C@H](CC2CCC2)NC(=O)[C@H](CCC(N)=O)NC(=O)C(C)(C)NC(=O)[C@H](Cc2c[nH]c3ccccc23)NC(=O)[C@H](Cc2ccc(O)cc2)NC(=O)[C@H](CCC(=O)O)NC1=O)[C@@H](C)O [A8(Aib)] | 1.5 | 37.5 |  |  |  | 
2 | CC(=O)N[C@@H](CCCCN=[N+]=[N-])C(=O)NCCC(=O)N[C@@H](CC(C)C)C(=O)N[C@H](C(=O)N[C@@H](Cc1ccccc1)C(=O)N[C@]1(C)CCCCCCC=CCCC[C@@](C)(C(=O)N[C@@H](CO)C(=O)N[C@@H](C)C(=O)N[C@@H](C)C(N)=O)NC(=O)[C@H](CC2CCC2)NC(=O)[C@H](CCC(N)=O)NC(=O)[C@H](C)N(C)C(=O)[C@H](Cc2c[nH]c3ccccc23)NC(=O)[C@H](Cc2ccc(O)cc2)NC(=O)[C@H](CCC(=O)O)NC1=O)[C@@H](C)O [A8(N-methyl L-Ala)] | > 50 | 16.9 | 671 | < 30 |  | 
3 | CC(=O)N[C@@H](CCCCN=[N+]=[N-])C(=O)NCCC(=O)N[C@@H](CC(C)C)C(=O)N[C@H](C(=O)N[C@@H](Cc1ccccc1)C(=O)N[C@]1(C)CCCCCCC=CCCC[C@@](C)(C(=O)N[C@@H](C)C(=O)NC(C)(C)C(=O)N[C@@H](C)C(N)=O)NC(=O)[C@H](CC2CCC2)NC(=O)[C@H](CCC(N)=O)NC(=O)[C@H](C)NC(=O)[C@H](Cc2c[nH]c3ccccc23)NC(=O)[C@H](Cc2ccc(O)cc2)NC(=O)[C@H](CCC(=O)O)NC1=O)[C@@H](C)O [A13(Aib)] (Ac-[Lys(N3)][βAla]LTF[R8]EYWAQ[Cba][S5]A[Aib]A-NH2; staple 6-13) | 0.59 | 34.4 |  |  |  | 
4 | CC(=O)N[C@@H](CCCCN=[N+]=[N-])C(=O)NCCC(=O)N[C@@H](CC(C)C)C(=O)N[C@H](C(=O)N[C@@H](Cc1ccccc1)C(=O)N[C@]1(C)CCCCCCC=CCCC[C@@](C)(C(=O)N[C@@H](CO)C(=O)N[C@@H](C)C(=O)N(C)[C@@H](C)C(N)=O)NC(=O)[C@H](CC2CCC2)NC(=O)[C@H](CCC(N)=O)NC(=O)[C@H](C)NC(=O)[C@H](Cc2c[nH]c3ccccc23)NC(=O)[C@H](Cc2ccc(O)cc2)NC(=O)[C@H](CCC(=O)O)NC1=O)[C@@H](C)O [A14(N-methyl L-Ala)] | 0.71 | 47.5 |  |  |  | 
5 | CC(=O)N[C@@H](CC(C)C)C(=O)N[C@H](C(=O)N[C@@H](Cc1ccccc1)C(=O)N[C@]1(C)CCCCCCC=CCCC[C@@](C)(C(=O)N[C@@H](CO)C(=O)N[C@@H](C)C(=O)N[C@@H](C)C(N)=O)NC(=O)[C@@H](CC2CCC2)NC(=O)[C@H](CC(C)C)NC(=O)[C@H](CCC(N)=O)NC(=O)[C@H](Cc2c[nH]c3ccccc23)NC(=O)[C@H](Cc2ccc(O)cc2)NC(=O)[C@H](CCC(=O)O)NC1=O)[C@@H](C)O [Cba10(D-Cba)] |  |  |  |  | 8.1 | 1650
6 | CC(=O)N[C@@H](CCCCN=[N+]=[N-])C(=O)NCCC(=O)NC(C)(C)C(=O)N[C@H](C(=O)N[C@@H](Cc1ccccc1)C(=O)N[C@]1(C)CCCCCCC=CCCC[C@@](C)(C(=O)N[C@@H](CO)C(=O)N[C@@H](C)C(=O)N[C@@H](C)C(N)=O)NC(=O)[C@H](CC2CCC2)NC(=O)[C@H](CCC(N)=O)NC(=O)[C@H](C)NC(=O)[C@H](Cc2c[nH]c3ccccc23)NC(=O)[C@H](Cc2ccc(O)cc2)NC(=O)[C@H](CCC(=O)O)NC1=O)[C@@H](C)O [L1(Aib)] | 0.49 | 42.7 |  |  |  | 
7 | CC(=O)N[C@@H](CCCCN=[N+]=[N-])C(=O)NCCC(=O)N(C)[C@@H](C)C(=O)N[C@H](C(=O)N[C@@H](Cc1ccccc1)C(=O)N[C@]1(C)CCCCCCC=CCCC[C@@](C)(C(=O)N[C@@H](CO)C(=O)N[C@@H](C)C(=O)N[C@@H](C)C(N)=O)NC(=O)[C@H](CC2CCC2)NC(=O)[C@H](CCC(N)=O)NC(=O)[C@H](C)NC(=O)[C@H](Cc2c[nH]c3ccccc23)NC(=O)[C@H](Cc2ccc(O)cc2)NC(=O)[C@H](CCC(=O)O)NC1=O)[C@@H](C)O [L1(N-methyl L-Ala)] | 1.49 | 47.2 |  |  |  | 
8 | CC(=O)N[C@@H](CCCCN=[N+]=[N-])C(=O)NCCC(=O)N(C)[C@@H](CC(C)C)C(=O)N[C@H](C(=O)N[C@@H](Cc1ccccc1)C(=O)N[C@]1(C)CCCCCCC=CCCC[C@@](C)(C(=O)N[C@@H](CO)C(=O)N[C@@H](C)C(=O)N[C@@H](C)C(N)=O)NC(=O)[C@H](CC2CCC2)NC(=O)[C@H](CCC(N)=O)NC(=O)[C@H](C)NC(=O)[C@H](Cc2c[nH]c3ccccc23)NC(=O)[C@H](Cc2ccc(O)cc2)NC(=O)[C@H](CCC(=O)O)NC1=O)[C@@H](C)O [L1(N-methyl L-Leu)] | 0.46 | 32.6 |  |  |  | 
9 | CC(=O)N[C@@H](CC(C)C)C(=O)N[C@H](C(=O)N[C@@H](Cc1ccccc1)C(=O)N[C@]1(C)CCCCCCC=CCCC[C@@](C)(C(=O)N[C@@H](CO)C(=O)N[C@@H](C)C(=O)N[C@@H](C)C(N)=O)NC(=O)[C@H](CC2CCC2)NC(=O)[C@H](CC(C)C)NC(=O)[C@H](CCC(N)=O)NC(=O)[C@H](C)NC(=O)[C@H](Cc2ccc(O)cc2)NC(=O)[C@H](CCC(=O)O)NC1=O)[C@@H](C)O [Peptide W7A] (Ac-LTF[R8]EYAQL[Cba][S5]SAA-NH2; staple 4-11) |  |  |  |  | 8.8 | 5090
10 | CC(=O)N[C@@H](CCCCN=[N+]=[N-])C(=O)NCCC(=O)N[C@@H](CC(C)C)C(=O)N[C@H](C(=O)N[C@@H](Cc1ccccc1)C(=O)N[C@]1(C)CCCCCCC=CCCC[C@@](C)(C(=O)N[C@@H](CO)C(=O)N[C@@H](C)C(=O)N[C@@H](C)C(N)=O)NC(=O)[C@H](CC2CCC2)NC(=O)C(C)(C)NC(=O)[C@H](C)NC(=O)[C@H](Cc2c[nH]c3ccccc23)NC(=O)[C@H](Cc2ccc(O)cc2)NC(=O)[C@H](CCC(=O)O)NC1=O)[C@@H](C)O [Q9(Aib)] | 0.25 | 28 |  |  |  | 
11 | CC(=O)N[C@@H](CCCCN=[N+]=[N-])C(=O)NCCC(=O)N[C@@H](CC(C)C)C(=O)N[C@H](C(=O)N[C@@H](Cc1ccccc1)C(=O)N[C@]1(C)CCCCCCC=CCCC[C@@](C)(C(=O)NC(C)(C)C(=O)N[C@@H](C)C(=O)N[C@@H](C)C(N)=O)NC(=O)[C@H](CC2CCC2)NC(=O)[C@H](CCC(N)=O)NC(=O)[C@H](C)NC(=O)[C@H](Cc2c[nH]c3ccccc23)NC(=O)[C@H](Cc2ccc(O)cc2)NC(=O)[C@H](CCC(=O)O)NC1=O)[C@@H](C)O [S12(Aib)] | 0.25 | 37.3 |  |  |  | 
12 | CC(=O)N[C@@H](CCCCN=[N+]=[N-])C(=O)NCCC(=O)N[C@@H](CC(C)C)C(=O)NC(C)(C)C(=O)N[C@@H](Cc1ccccc1)C(=O)N[C@]1(C)CCCCCCC=CCCC[C@@](C)(C(=O)N[C@@H](CO)C(=O)N[C@@H](C)C(=O)N[C@@H](C)C(N)=O)NC(=O)[C@H](CC2CCC2)NC(=O)[C@H](CCC(N)=O)NC(=O)[C@H](C)NC(=O)[C@H](Cc2c[nH]c3ccccc23)NC(=O)[C@H](Cc2ccc(O)cc2)NC(=O)[C@H](CCC(=O)O)NC1=O [T2(Aib)] | 2.9 | 38.3 |  |  |  | 
13 | CC(=O)N[C@@H](CCCCN=[N+]=[N-])C(=O)NCCC(=O)N[C@@H](CC(C)C)C(=O)N(C)[C@H](C(=O)N[C@@H](Cc1ccccc1)C(=O)N[C@]1(C)CCCCCCC=CCCC[C@@](C)(C(=O)N[C@@H](CO)C(=O)N[C@@H](C)C(=O)N[C@@H](C)C(N)=O)NC(=O)[C@H](CC2CCC2)NC(=O)[C@H](CCC(N)=O)NC(=O)[C@H](C)NC(=O)[C@H](Cc2c[nH]c3ccccc23)NC(=O)[C@H](Cc2ccc(O)cc2)NC(=O)[C@H](CCC(=O)O)NC1=O)[C@@H](C)O [T2(N-methyl L-Thr)] | 7.7 | 38.2 |  |  |  | 
